# From patent US20210128690A1, “METHODS OF ADMINISTERING HEPCIDIN” (La Jolla Pharmaceutical Company, priority 2016, published 2021)
# Experiment: hepcidin administration to human subjects (patients with sickle cell disease or hereditary hemochromatosis)
# Format: in vivo
# Settings: doses of 1 mg hepcidin and 5 mg hepcidin
# Excerpt: FIG. 1 illustrates the change in serum ferritin levels at baseline and 8 days post hepcidin administration in two patients with sickle cell disease and a high ferritin serum baseline.
# Efficacy at this dosing was not expected based on animal studies in mice, rats, and dogs.
smiles,measurement,value
CC[C@H](C)[C@@H]1NC(=O)[C@@H](NC(=O)[C@@H](NC(=O)[C@@H]2CCCN2C(=O)[C@H](Cc2ccccc2)NC(=O)[C@H](Cc2c[nH]cn2)NC(=O)[C@@H](NC(=O)[C@@H](N)CC(=O)O)[C@@H](C)O)[C@@H](C)CC)CSSC[C@@H](C(=O)N[C@@H](CCCCN)C(=O)N[C@H](C(=O)O)[C@@H](C)O)NC(=O)[C@@H]2CSSC[C@@H]3NC(=O)[C@@H]4CSSC[C@H](NC(=O)[C@H](Cc5ccccc5)NC1=O)C(=O)N[C@@H](CSSC[C@H](NC(=O)[C@H](CCCCN)NC(=O)[C@H](CO)NC(=O)[C@H](CCCNC(=N)N)NC(=O)[C@H](Cc1c[nH]cn1)NC3=O)C(=O)NCC(=O)N[C@@H](CCSC)C(=O)N2)C(=O)NCC(=O)N4 [hepcidin],efficacy in human subjects,display efficacy
